US11945822B2, “Pyrazolo-triazine and/or pyrazolo-pxrimidine derivatives as selective inhibitor of cyclin dependent kinase” (QURIENT CO., LTD., priority 2018, dated 2024)

How the values were obtained:
CDK1/Cyclin B = molecular target: T1, CDK1/Cyclin B (Homo sapiens, UniProt P06493); test: Enzymatic assay for CDK1 (FRET based LANCE Ultra kinase assay); type: biochemical; settings: read-out: CDK1 enzymatic activity (IC50 range)
T1 construct: purchased Invitrogen PR4768C
Outline: (§1)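 LANCE Ultra TR-FRET: ULight-MBP peptide (68 nM) with ATP at Km, […], 60 min at 23° C. EDTA plus Eu-anti-phospho-MBP added, another 60 min, then 665/615 nm emission read. Compounds tested as 8-dose 4-fold DMSO dilutions.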

CDK2/Cyclin A = molecular target: T2, CDK2/Cyclin A (Homo sapiens, UniProt P24941); test: Enzymatic assay for CDK2 (FRET based LANCE Ultra kinase assay); type: biochemical; settings: read-out: CDK2 enzymatic activity (IC50 range)
T2 construct: purchased Invitrogen PV6290
Outline: as §1

CDK5/p25 = molecular target: T3, CDK5/p25 (Homo sapiens, UniProt Q00535); test: Enzymatic assay for CDK5 (FRET based LANCE Ultra kinase assay); type: biochemical; settings: read-out: CDK5 enzymatic activity (IC50 range)
T3 construct: purchased Invitrogen PR8543B
T3 sequence (Q00535 whole entry): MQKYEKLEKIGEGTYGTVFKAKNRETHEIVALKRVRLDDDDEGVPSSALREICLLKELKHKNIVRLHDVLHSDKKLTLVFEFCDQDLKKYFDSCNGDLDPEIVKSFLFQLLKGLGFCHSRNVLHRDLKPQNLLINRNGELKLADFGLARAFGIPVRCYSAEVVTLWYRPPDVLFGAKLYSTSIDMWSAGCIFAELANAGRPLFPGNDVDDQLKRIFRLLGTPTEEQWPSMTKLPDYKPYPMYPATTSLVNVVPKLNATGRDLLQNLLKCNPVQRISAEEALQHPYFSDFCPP
T3 sequence (Q15078 99-307 partner limits assumed): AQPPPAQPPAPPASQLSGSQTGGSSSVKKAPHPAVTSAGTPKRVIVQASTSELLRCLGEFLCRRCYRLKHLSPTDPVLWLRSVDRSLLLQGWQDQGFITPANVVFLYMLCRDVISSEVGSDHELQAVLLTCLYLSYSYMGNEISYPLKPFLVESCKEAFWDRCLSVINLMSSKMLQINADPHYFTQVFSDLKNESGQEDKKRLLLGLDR
Outline: as §1

CDK7/Cyclin H/MNAT1 = molecular target: T4, CDK7/Cyclin H/MNAT1 (Homo sapiens, UniProt P50613); test: Enzymatic assay for CDK7 (FRET based LANCE Ultra kinase assay); type: biochemical; settings: for IC50: read-out: CDK7 enzymatic activity (IC50 range)
T4 construct: purchased Invitrogen PR6749B
T4 sequence (P50613 whole entry): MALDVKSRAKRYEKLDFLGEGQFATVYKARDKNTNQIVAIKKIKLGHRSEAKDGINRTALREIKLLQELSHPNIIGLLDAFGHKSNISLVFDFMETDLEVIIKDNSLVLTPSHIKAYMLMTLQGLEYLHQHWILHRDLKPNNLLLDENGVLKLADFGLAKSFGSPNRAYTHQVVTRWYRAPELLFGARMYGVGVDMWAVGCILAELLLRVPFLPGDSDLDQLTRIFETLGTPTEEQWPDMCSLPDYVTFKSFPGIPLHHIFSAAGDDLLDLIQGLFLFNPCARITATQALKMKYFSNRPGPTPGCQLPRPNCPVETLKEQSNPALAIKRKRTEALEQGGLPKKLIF
T4 sequence (P51946 whole entry partner): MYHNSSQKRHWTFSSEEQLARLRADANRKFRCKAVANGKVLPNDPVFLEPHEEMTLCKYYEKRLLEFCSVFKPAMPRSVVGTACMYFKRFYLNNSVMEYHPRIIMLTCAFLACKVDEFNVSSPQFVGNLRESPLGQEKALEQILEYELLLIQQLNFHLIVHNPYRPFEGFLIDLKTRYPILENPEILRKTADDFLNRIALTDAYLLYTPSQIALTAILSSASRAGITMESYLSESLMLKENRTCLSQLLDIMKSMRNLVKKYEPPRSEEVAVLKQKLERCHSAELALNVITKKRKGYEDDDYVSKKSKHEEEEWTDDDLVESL
T4 sequence (P51948 whole entry partner): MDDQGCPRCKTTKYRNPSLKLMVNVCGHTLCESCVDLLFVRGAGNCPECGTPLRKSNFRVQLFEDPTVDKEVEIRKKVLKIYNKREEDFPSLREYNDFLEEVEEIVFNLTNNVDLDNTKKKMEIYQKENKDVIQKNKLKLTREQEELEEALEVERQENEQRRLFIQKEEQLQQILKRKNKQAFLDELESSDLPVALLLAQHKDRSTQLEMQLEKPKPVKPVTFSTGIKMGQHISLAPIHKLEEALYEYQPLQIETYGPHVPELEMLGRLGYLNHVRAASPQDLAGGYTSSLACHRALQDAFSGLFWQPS
Outline: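 LANCE Ultra TR-FRET kinase assay using a ULight-labeled peptide substrate and a Eu-labeled anti-phospho antibody, with ATP at its Km. Purified CDK/cyclin complex was added to compound after brief centrifugation.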

H460 = test: Cellular H460 viability assay (CellTiter-Glo, 72 hours); type: cell-based; settings: Homo sapiens, NCI-H460
Outline: (§2)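 72 h treatment, 37 °C, 5% CO2; DMSO ctrl, final <0.1%; CellTiter-Glo luminescence; n=2.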

MOLT-4 = test: Cellular MOLT-4 viability assay (CellTiter-Glo, 72 hours); type: cell-based; settings: Homo sapiens, MOLT4 viability assay
Procedure: All cell lines were routinely tested for mycoplasma.
The effect of the CDK7 inhibitor to inhibit the growth of target cancer cells was evaluated through the 72 hours time period of viability assay. Briefly, the candidate cell line ware plated in 96 well plate at the following density of cells respectively. […] DMSO solvent without compound served as a control and final DMSO concentration less than 0.1%. After 72 hours of incubation at 37° C., 5% CO2 incubator, cells were analyzed for the viability using the CellTiter-Glo Luminescent Cell Viability Assay (Promega, Cat #G7570). All viability assays were performed in duplicate and Luminescence was read using an Envision (Perkin Elmer, USA). Data was analyzed using XLfit software.

HCT116 = test: Cellular HCT116 viability assay (CellTiter-Glo, 72 hours); type: cell-based; settings: Homo sapiens, HCT-116
Outline: as §2

MV4-11 = test: Cellular MV4-11 viability assay (CellTiter-Glo, 72 hours); type: cell-based; settings: Homo sapiens
Outline: as §2

T1 sequence (P06493 whole entry): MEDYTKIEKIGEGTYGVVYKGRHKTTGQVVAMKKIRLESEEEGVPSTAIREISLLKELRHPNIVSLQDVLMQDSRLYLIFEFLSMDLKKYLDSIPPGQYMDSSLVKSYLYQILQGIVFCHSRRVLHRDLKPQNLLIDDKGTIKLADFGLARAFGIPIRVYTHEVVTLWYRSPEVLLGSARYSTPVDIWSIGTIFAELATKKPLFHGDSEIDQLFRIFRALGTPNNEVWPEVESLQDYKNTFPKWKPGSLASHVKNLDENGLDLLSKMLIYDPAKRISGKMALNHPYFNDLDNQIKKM
T1 sequence (P14635 whole entry partner): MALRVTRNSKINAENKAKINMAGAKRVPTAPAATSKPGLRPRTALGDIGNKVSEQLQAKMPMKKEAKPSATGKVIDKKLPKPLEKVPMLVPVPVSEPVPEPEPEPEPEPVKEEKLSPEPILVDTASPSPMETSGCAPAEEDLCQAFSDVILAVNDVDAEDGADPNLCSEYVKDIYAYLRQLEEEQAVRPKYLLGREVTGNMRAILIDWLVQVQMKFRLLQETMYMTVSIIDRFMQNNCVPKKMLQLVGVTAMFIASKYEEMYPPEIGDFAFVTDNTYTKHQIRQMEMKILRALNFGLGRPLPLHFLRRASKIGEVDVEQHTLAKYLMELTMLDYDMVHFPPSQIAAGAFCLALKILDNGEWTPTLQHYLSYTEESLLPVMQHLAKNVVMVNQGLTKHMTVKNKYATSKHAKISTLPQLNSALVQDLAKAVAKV

SMILES | IC50 (CDK1/Cyclin B) | IC50 (CDK2/Cyclin A) | IC50 (CDK5/p25) | CDK1/CDK7: Selectivity of CDK7 inhibition over CDK1 inhibition (CDK7/Cyclin H/MNAT1) | CDK2/CDK7: Selectivity of CDK7 inhibition over CDK2 inhibition (CDK7/Cyclin H/MNAT1) | CDK5/CDK7: Selectivity of CDK7 inhibition over CDK5 inhibition (CDK7/Cyclin H/MNAT1) | IC50 (CDK7/Cyclin H/MNAT1) | IC50 (H460) | IC50 (MOLT-4) | IC50 (HCT116) | IC50 (MV4-11)
CC(C)c1cnn2c(NCc3cccc4cccnc34)nc(N3CCC(N)CC3)nc12 [Compound 9] | 100 to 1000 nM | 100 to 1000 nM | < 100 nM | B (B=less than 200 fold, but greater than 20 fold) | B (B=less than 200 fold, but greater than 20 fold) | C (C=less than 20 fold) | < 100 nM | < 1000 nM | 1000 to 10000 nM | – | –
CC(C)c1cnn2c(NCc3ccccc3-n3cccn3)nc(-c3ccc(Cl)c(OC4CCNCC4)c3)nc12 [Compound 173] | > 1000 nM | > 1000 nM | 100 to 1000 nM | A (A=greater than 200 fold) | B (B=less than 200 fold, but greater than 20 fold) | B (B=less than 200 fold, but greater than 20 fold) | < 100 nM | 1000 to 10000 nM | 1000 to 10000 nM | – | –
CC(C)(C)c1cnn2c(NCc3ccccc3-n3cccn3)nc(N3CCC(N)CC3)nc12 [Compound 24] | 100 to 1000 nM | 100 to 1000 nM | < 100 nM | B (B=less than 200 fold, but greater than 20 fold) | B (B=less than 200 fold, but greater than 20 fold) | B (B=less than 200 fold, but greater than 20 fold) | < 100 nM | < 1000 nM | 1000 to 10000 nM | < 1000 nM | –
CC(C)c1cnn2c(NCc3ccccc3-n3cccn3)nc(NC3CCNCC3)nc12 [Compound 40] | > 1000 nM | 100 to 1000 nM | 100 to 1000 nM | A (A=greater than 200 fold) | B (B=less than 200 fold, but greater than 20 fold) | C (C=less than 20 fold) | < 100 nM | < 1000 nM | > 10000 nM | – | < 1000 nM
CC(C)c1cnn2c(NCc3ccccc3NC3CCN(C)CC3)nc(N3CCC(N)CC3)nc12 [Compound 49] | – | – | – | – | – | – | – | 1000 to 10000 nM | 1000 to 10000 nM | 1000 to 10000 nM | –
CC(C)c1cnn2c(NCc3cccc(Oc4ccccc4)c3)nc(N3CCC(N)CC3)nc12 [Compound 51] | > 1000 nM | > 1000 nM | > 1000 nM | B (B=less than 200 fold, but greater than 20 fold) | B (B=less than 200 fold, but greater than 20 fold) | B (B=less than 200 fold, but greater than 20 fold) | < 100 nM | 1000 to 10000 nM | 1000 to 10000 nM | 1000 to 10000 nM | –
CC(C)c1cnn2c(NCc3cccc(NC(=O)c4ccccc4)c3)nc(N3CCC(N)CC3)nc12 [Compound 50] | – | – | – | – | – | – | – | < 1000 nM | 1000 to 10000 nM | 1000 to 10000 nM | –
CC(C)c1cnn2c(NCc3ccccc3OCc3ccccc3)nc(N3CCC(N)CC3)nc12 [Compound 57] | > 1000 nM | > 1000 nM | 100 to 1000 nM | A (A=greater than 200 fold) | A (A=greater than 200 fold) | B (B=less than 200 fold, but greater than 20 fold) | < 100 nM | 1000 to 10000 nM | 1000 to 10000 nM | – | –
CC(C)c1cnn2c(NCc3ccsc3-n3cccn3)nc(N3CCC(N)CC3)nc12 [Compound 62] | 100 to 1000 nM | 100 to 1000 nM | < 100 nM | B (B=less than 200 fold, but greater than 20 fold) | B (B=less than 200 fold, but greater than 20 fold) | C (C=less than 20 fold) | < 100 nM | < 1000 nM | 1000 to 10000 nM | – | –
CC(C)c1cnn2c(NCc3ccccc3-n3cccn3)nc(N3CCN(C)CC3)nc12 [Compound 3] | > 1000 nM | > 1000 nM | 100 to 1000 nM | A (A=greater than 200 fold) | B (B=less than 200 fold, but greater than 20 fold) | B (B=less than 200 fold, but greater than 20 fold) | < 100 nM | 1000 to 10000 nM | > 10000 nM | – | –
CCC(O)c1cnn2c(NCc3ccccc3-n3cccn3)nc(N3CCC(N)CC3)nc12 (racemic) [Compound 52] | > 1000 nM | 100 to 1000 nM | 100 to 1000 nM | C (C=less than 20 fold) | C (C=less than 20 fold) | C (C=less than 20 fold) | < 100 nM | 1000 to 10000 nM | 1000 to 10000 nM | > 10000 nM | –
CC(C)c1cnn2c(NCc3ccccc3N(C)C3CCN(C)CC3)nc(N3CCC(N)CC3)nc12 [Compound 53] | – | – | – | – | – | – | – | < 1000 nM | 1000 to 10000 nM | 1000 to 10000 nM | –
CC(C)c1cnn2c(NCc3ccccc3-n3cccn3)cc(N3CCC(N)CC3)nc12 [Compound 1] | > 1000 nM | > 1000 nM | 100 to 1000 nM | B (B=less than 200 fold, but greater than 20 fold) | B (B=less than 200 fold, but greater than 20 fold) | C (C=less than 20 fold) | < 100 nM | < 1000 nM | 1000 to 10000 nM | 1000 to 10000 nM | –
CC(C)c1cnn2c(NCc3ccccc3Oc3ccc4ccccc4n3)nc(N3CCC(N)CC3)nc12 [Compound 74] | > 1000 nM | > 1000 nM | 100 to 1000 nM | B (B=less than 200 fold, but greater than 20 fold) | B (B=less than 200 fold, but greater than 20 fold) | B (B=less than 200 fold, but greater than 20 fold) | < 100 nM | 1000 to 10000 nM | > 10000 nM | – | –
CCCc1ccccc1CNc1nc(N2CCC(N)CC2)nc2c(C(C)C)cnn12 [Compound 55] | 100 to 1000 nM | 100 to 1000 nM | 100 to 1000 nM | B (B=less than 200 fold, but greater than 20 fold) | B (B=less than 200 fold, but greater than 20 fold) | C (C=less than 20 fold) | < 100 nM | 1000 to 10000 nM | 1000 to 10000 nM | – | –
CC(=O)N(C)c1ccccc1CNc1nc(N2CCC(N)CC2)nc2c(C(C)C)cnn12 [Compound 64] | > 1000 nM | > 1000 nM | 100 to 1000 nM | A (A=greater than 200 fold) | A (A=greater than 200 fold) | B (B=less than 200 fold, but greater than 20 fold) | < 100 nM | < 1000 nM | > 10000 nM | – | < 1000 nM
Cc1ccc(-n2cccn2)cc1CNc1nc(N2CCC(N)CC2)nc2c(C(C)C)cnn12 [Compound 75] | > 1000 nM | > 1000 nM | 100 to 1000 nM | A (A=greater than 200 fold) | B (B=less than 200 fold, but greater than 20 fold) | B (B=less than 200 fold, but greater than 20 fold) | < 100 nM | 1000 to 10000 nM | 1000 to 10000 nM | – | –
CC(C)c1cnn2c(NCc3ccncc3-n3cccn3)nc(N3CCC(N)CC3)nc12 [Compound 6] | – | – | – | – | – | – | – | < 1000 nM | > 10000 nM | – | –
CC(C)c1cnn2c(NCc3cccc(NC(=O)c4cccc(NC(=O)CCCN(C)C)c4)c3)nc(N3CCC(N)CC3)nc12 [Compound 70] | > 1000 nM | 100 to 1000 nM | 100 to 1000 nM | A (A=greater than 200 fold) | B (B=less than 200 fold, but greater than 20 fold) | B (B=less than 200 fold, but greater than 20 fold) | < 100 nM | 1000 to 10000 nM | > 10000 nM | – | –
